For the test, the system named is Dd2 strain of P. falciparum. Kind of test: Activity against the Dd2 strain of P. falciparum (SYBR Green I, 72-h incubation). It counts as cell-based. As to conditions: read-out: EC^50 Dd2. The method in brief:
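Dd2 parasites at 1% parasitemia and 1.0% hematocrit in albumax II screening medium, 72 h at 37° C under 93% N2/4% CO2/3% O2; final DMSO 0.125%. Growth read as SYBR Green I fluorescence (485/530 nm) after lysis and 24 h staining. 20 μM mefloquine defined background, DMSO baseline.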

[1] abbreviates: Plasmodium falciparum, DD2, 72 h.

Like-named read-outs stand apart in the source and are kept apart here.

Consider `COc1ccc(NC(=O)N2CCC3(CC2)CN(C(=O)C2CCC2)[C@H](CO)c2c3c3ccc(OC)cc3n2C)cc1` [Compound 86, (S)-2′-(cyclobutanecarbonyl)-1′-(hydroxymethyl)-7′-methoxy-N-(4-methoxyphenyl)-9′-methyl-1′,2′,3′,9′-tetrahydrospiro [piperidine-4,4′-pyrido[3,4-b]indole]-1-carboxamide], for which the EC50 under setting [1] stood at 96 nM. As for `COc1ccc2c3c([nH]c2c1)[C@H](CO)N(Cc1ccc(Cl)cc1)CC31CCN(Cc2nccs2)CC1` [Compound 87, (R)-(2′-(4-chlorobenzyl)-7′-methoxy-1-(thiazol-2-ylmethyl)-1′,2′,3′,9′-tetrahydrospiro [piperidine-4,4′-pyrido[3,4-b]indol]-1′-yl)methanol], the EC50 under setting [1] is 78 nM. Consider `COc1ccc2c3c(n(C)c2c1)[C@H](CO)N(Cc1ccc(Cl)cc1)CC31CCN(CC2CC2)CC1` [Compound 88, (R)-(2′-(4-chlorobenzyl)-1-(cyclopropylmethyl)-7′-methoxy-9′-methyl-1′,2′,3′,9′-tetrahydrospiro [piperidine-4,4′-pyrido[3,4-b]indol]-1′-yl)methanol], for which the EC50 was determined as 1170 nM.

As for `COc1ccc2c3c([nH]c2c1)[C@H](CO)N(C(=O)CN(C)C)CC31CCN(CC2CCCCC2)CC1` [Compound 89, (R)-1-(1-(cyclohexylmethyl)-1′-(hydroxymethyl)-7′-methoxyspiro [piperidine-4,4′-pyrido[3,4-b]indol]-2′(1′ H,3′H,9′H)-yl)-2-(dimethylamino)ethanone], the EC50 under setting [1] came out at 432 nM. Take `COc1ccc2c3c(n(C)c2c1)[C@@H](CO)N(C(=O)CN(C)C)CC31CCN(Cc2cccnc2)CC1` [Compound 90, (S)-2-(dimethylamino)-1-(1′-(hydroxymethyl)-7′-methoxy-9′-methyl-1-(pyridin-3-ylmethyl)spiro [piperidine-4,4′-pyrido[3,4-b]indol]-2′(1′H,3′H,9′H)-yl)ethanone]: the EC50 under setting [1] was 2610 nM. On the same count and under the same terms, then `COc1ccc2c3c(n(C)c2c1)[C@H](CO)NCC31CCN(CC2CCCC2)CC1` [Compound 91, (R)-(1-(cyclopentylmethyl)-7′-methoxy-9′-methyl-1′,2′,3′,9′-tetrahydrospiro[piperidine-4,4′-pyrido[3,4-b]indol]-1′-yl)methanol], with 481 nM; and `CCCN1CCC2(CC1)CN(Cc1ccccc1OC)[C@H](CO)c1c2c2ccc(OC)cc2n1C` [Compound 92, (S)-(7′-methoxy-2′-(2-methoxybenzyl)-9′-methyl-1-propyl-1′,2′,3′,9′-tetrahydrospiro [piperidine-4,4′-pyrido[3,4-b]indol]-1′-yl) methanol], with 681 nM. As for `COc1ccc2c3c(n(C)c2c1)[C@@H](CO)N(C(=O)C1CC1)CC31CN(C(=O)Nc2cccc(F)c2)C1` [Compound 93, (S)-2′-(cyclopropanecarbonyl)-N-(3-fluorophenyl)-1′-(hydroxymethyl)-7′-methoxy-9′-methyl-1′,2′,3′,9′-tetrahydrospiro [azetidine-3,4′-pyrido[3,4-b]indole]-1-carboxamide], the EC50 under setting [1] was determined as 195 nM. Same read-out and setting: then `COc1ccc2c3c([nH]c2c1)[C@@H](CO)N(Cc1ccccc1)CC31CCN(Cc2cncnc2)CC1` [Compound 94, (S)-(2′-benzyl-7′-methoxy-1-(pyrimidin-5-ylmethyl)-1′,2′,3′,9′-tetrahydrospiro [piperidine-4,4′-pyrido[3,4-b]indol]-1′-yl) methanol], with 929 nM; and `COc1ccc2c3c(n(C)c2c1)[C@H](CO)N(CC1CC1)CC31CN(C(=O)c2ccc3c(c2)OCO3)C1` [Compound 95, (R)-benzo[d] [1,3]dioxol-5-yl(2′-(cyclopropylmethyl)-1′-(hydroxymethyl)-7′-methoxy-9′-methyl-1′,2′,3′,9′-tetrahydrospiro [azetidine-3,4′-pyrido[3,4-b]indol]-1-yl)methanone], with 1260 nM; and `COc1ccc2c3c(n(C)c2c1)[C@H](CO)N(C(=O)Nc1ccc(F)cc1)CC31CCN(C)CC1` [Compound 96, (R)-N-(4-fluorophenyl)-1′-(hydroxymethyl)-7′-methoxy-1,9′-dimethyl-3′,9′-dihydrospiro[piperidine-4,4′-pyrido[3,4-b]indole]-2′(1′H)-carboxamide], with 2870 nM. On the same count and under the same terms, as for `COc1ccc(CN2CC3(C2)CN(C(=O)CN(C)C)[C@H](CO)c2[nH]c4cc(OC)ccc4c23)cc1` [Compound 97, (S)-2-(dimethylamino)-1-(1′-(hydroxymethyl)-7′-methoxy-1-(4-methoxybenzyl)spiro[azetidine-3,4′-pyrido[3,4-b]indol]-2′(1′H,3′H,9′H)-yl)ethanone], the figure is 1640 nM; as for `CCCC(=O)N1CCC2(CC1)CN(S(=O)(=O)c1ccc(C)cc1)[C@@H](CO)c1[nH]c3cc(OC)ccc3c12` [Compound 98, (R)-1-(1′-(hydroxymethyl)-7′-methoxy-2′-tosyl-1′,2′,3′,9′-tetrahydrospiro[piperidine-4,4′-pyrido[3,4-b]indol]-1-yl)butan-1-one], 98 nM; as for `COc1ccc2c3c(n(C)c2c1)[C@@H](CO)N(C(=O)C1CCCC1)CC31CN(C(=O)Nc2cccc(F)c2)C1` [Compound 99, (S)-2′-(cyclopentanecarbonyl)-N-(3-fluorophenyl)-1′-(hydroxymethyl)-7′-methoxy-9′-methyl-1′,2′,3′,9′-tetrahydrospiro [azetidine-3,4′-pyrido[3,4-b]indole]-1-carboxamide], 1880 nM. The same measure, in the same setting: then `COc1ccc2c3c(n(C)c2c1)[C@@H](CO)N(C(=O)C1CCCC1)CC31CCN(C(=O)Nc2cccc(F)c2)CC1` [Compound 100, (S)-2′-(cyclopentanecarbonyl)-N-(3-fluorophenyl)-1′-(hydroxymethyl)-7′-methoxy-9′-methyl-1′,2′,3′,9′-tetrahydrospiro[piperidine-4,4′-pyrido[3,4-b]indole]-1-carboxamide], with 418 nM.

As to `COc1ccc2c3c(n(C)c2c1)[C@@H](CO)N(C(=O)Nc1ccc(F)cc1)CC31CCN(Cc2ccccn2)CC1` [Compound 101, (S)-N-(4-fluorophenyl)-1′-(hydroxymethyl)-7′-methoxy-9′-methyl-1-(pyridin-2-ylmethyl)-3′,9′-dihydrospiro [piperidine-4,4′-pyrido[3,4-b]indole]-2′(1′H)-carboxamide], the EC50 under setting [1] is 2050 nM. On the same count and under the same terms, then `COc1ccc2c3c([nH]c2c1)[C@H](CO)NCC31CCN(C(=O)Nc2ccc3c(c2)OCO3)CC1` [Compound 102, (R)-N-(benzo[d] [1,3]dioxol-5-yl)-1′-(hydroxymethyl)-7′-methoxy-1′,2′,3′,9′-tetrahydrospiro [piperidine-4,4′-pyrido[3,4-b]indole]-1-carboxamide], with 490 nM.

With `COc1ccc2c3c([nH]c2c1)[C@H](CO)N(C(=O)C1CCCCC1)CC31CCN(Cc2nccs2)CC1` [Compound 103, (R)-cyclohexyl (1′-(hydroxymethyl)-7′-methoxy-1-(thiazol-2-ylmethyl)spiro[piperidine-4,4′-pyrido[3,4-b]indol]-2′(1′H,3′H,9′H)-yl)methanone], the EC50 under setting [1] was determined as 182 nM. Take `COc1ccc2c3c([nH]c2c1)[C@H](CO)N(C(=O)C1CCOCC1)CC31CCN(Cc2nccs2)CC1` [Compound 104, (R)-(1′-(hydroxymethyl)-7′-methoxy-1-(thiazol-2-ylmethyl)spiro[piperidine-4,4′-pyrido[3,4-b]indol]-2′(1′H,3′H,9′H)-yl)(tetrahydro-2H-pyran-4-yl)methanone]: the EC50 under setting [1] amounted to 467 nM. Same read-out and setting: as for `COc1ccc2c3c([nH]c2c1)[C@H](CO)N(C(=O)Cc1ccccc1)CC31CCN(C(=O)Nc2ccccc2F)CC1` [Compound 105, (R)-N-(2-fluorophenyl)-1′-(hydroxymethyl)-7′-methoxy-2′-(2-phenylacetyl)-1′,2′,3′,9′-tetrahydrospiro [piperidine-4,4′-pyrido[3,4-b]indole]-1-carboxamide], the figure is 269 nM; as for `COc1ccc2c3c(n(C)c2c1)[C@@H](CO)N(C(=O)Nc1ccc(F)cc1)CC31CCN(Cc2cccnc2)CC1` [Compound 106, (S)-N-(4-fluorophenyl)-1′-(hydroxymethyl)-7′-methoxy-9′-methyl-1-(pyridin-3-ylmethyl)-3′,9′-dihydrospiro [piperidine-4,4′-pyrido[3,4-b]indole]-2′(1′H)-carboxamide], 727 nM. Turning to `CCC(=O)N1CCC2(CC1)CN(Cc1cccc(OC)c1)[C@@H](CO)c1[nH]c3cc(OC)ccc3c12` [Compound 107, (R)-1-(1′-(hydroxymethyl)-7′-methoxy-2′-(3-methoxybenzyl)-1′,2′,3′,9′-tetrahydrospiro [piperidine-4,4′-pyrido[3,4-b]indol]-1-yl)propan-1-one], under setting [1], the EC50 is 2210 nM. Same read-out and setting: as for `COc1ccc2c3c(n(C)c2c1)[C@@H](CO)N(C(=O)c1ccc(F)cc1)CC31CN(C(=O)Nc2ccc(F)cc2)C1` [Compound 108, (S)-2′-(4-fluorobenzoyl)-N-(4-fluorophenyl)-1′-(hydroxymethyl)-7′-methoxy-9′-methyl-1′,2′,3′,9′-tetrahydrospiro[azetidine-3,4′-pyrido[3,4-b]indole]-1-carboxamide], the figure is 1220 nM; as for `COc1ccc2c3c(n(C)c2c1)[C@@H](CO)N(CC1CCCCC1)CC31CCN(Cc2nccs2)CC1` [Compound 109, (S)-(2′-(cyclohexylmethyl)-7′-methoxy-9′-methyl-1-(thiazol-2-ylmethyl)-1′,2′,3′,9′-tetrahydrospiro [piperidine-4,4′-pyrido[3,4-b]indol]-1′-yl)methanol], 1030 nM. On the same count and under the same terms, then `COc1ccc2c3c(n(C)c2c1)[C@@H](CO)N(C(=O)C1CCC1)CC31CN(C(=O)Nc2cccc(F)c2)C1` [Compound 110, (S)-2′-(cyclobutanecarbonyl)-N-(3-fluorophenyl)-1′-(hydroxymethyl)-7′-methoxy-9′-methyl-1′,2′,3′,9′-tetrahydrospiro [azetidine-3,4′-pyrido[3,4-b]indole]-1-carboxamide], with 779 nM.

The values are drawn from US9428507B2, “Compounds for the treatment of malaria” (The Broad Institute, Inc., priority 2013, dated 2016).
